Reference: ChEMBL document CHEMBL1130668, “Synthesis and evaluation of paclitaxel C7 derivatives: solution phase synthesis of combinatorial libraries” (1998)
Activity calls are given as the source filed them.

Tests used:
[1] = Ratio in tubulin to that of paclitaxel (0.3 uM) in microtubule assembly assay; IA inactive; assay type: functional
MCF7 [2] = assay: Cytotoxicity activity was measured against resistant human breast cancer cell line MCF-7 with respect to ED50 of paclitaxel (2200-3700 nM); IA inactive; assay type: functional, cell-based
MCF7 [3] = assay: Cytotoxicity activity was measured against human breast cancer cell line MCF-7 with respect to ED50 of paclitaxel (2 nM); IA inactive; assay type: functional, cell-based

CC(=O)O[C@H]1C(=O)[C@]2(C)[C@@H](OC(=O)CCc3ccccc3)C[C@H]3OC[C@@]3(OC(C)=O)[C@H]2[C@H](OC(=O)c2ccccc2)[C@]2(O)C[C@H](OC(=O)[C@H](O)[C@@H](NC(=O)c3ccccc3)c3ccccc3)C(C)=C1C2(C)C
inactive: Ratio [1] | ED50 (MCF7 [2]) | ED50 (MCF7 [3])
